Results on 3 compounds are retold here after patent publication US20190185471A1, “SOLID FORMS OF VENETOCLAX AND PROCESSES FOR THE PREPARATION OF VENETOCLAX” (DR. REDDY'S LABORATORIES LIMITED, priority 2016, published 2019).

A value given as a limit tells only on which side of the number the result lay.

The nature of data set [1]: stability of the solid form under mechanical stress (grinding and milling). Type of data set: physicochemical. An excerpt: (§1) The present application provides a stable amorphous form of Venetoclax devoid of the problems indicated in the prior art and suitable for powder handling and downstream processes.
Data set [2] is described as follows: stability of the solid form under hygroscopic conditions (higher relative humidity). Type of data set: physicochemical. Conditions: higher relative humidity conditions of more than 60% RH.
From the text: as §1

Data set [3] can be described thus: stability of the crystalline form over time. Type of data set: physicochemical. On the procedure: In an embodiment, drying crystalline Form RT2 of Venetoclax may be carried out at temperatures and times sufficient to achieve desired quality of product. Drying may be carried out at about 30° C. or above at which crystalline form RT2 is stable and for any time period required for obtaining a desired quality, such as from about 5 minutes to 10 hours or longer. Crystalline form RT2 is stable for 3 months period or longer.

For data set [4], the system named is tumor cells that overexpress BCL-2. The note with it: nonclinical studies; cited from earlier work.

`CC1(C)CCC(CN2CCN(c3ccc(C(=O)NS(=O)(=O)c4ccc(NCC5CCOCC5)c([N+](=O)[O-])c4)c(Oc4cnc5[nH]ccc5c4)c3)CC2)=C(c2ccc(Cl)cc2)C1` [Amorphous form of Venetoclax]: the “stability under mechanical stress” value in data set [1] is “highly stable”. In addition, the “stability under hygroscopic conditions” value in data set [2] is “stable”.

On to `CC1(C)CCC(CN2CCN(c3ccc(C(=O)NS(=O)(=O)c4ccc(NCC5CCOCC5)c([N+](=O)[O-])c4)c(Oc4cnc5[nH]ccc5c4)c3)CC2)=C(c2ccc(Cl)cc2)C1` [Crystalline form RT2], for which the “period for which the crystalline form is stable” value in data set [3] is recorded as no less than 3 months.

Turning to `CC1(C)CCC(CN2CCN(c3ccc(C(=O)NS(=O)(=O)c4ccc(NCC5CCOCC5)c([N+](=O)[O-])c4)c(Oc4cnc5[nH]ccc5c4)c3)CC2)=C(c2ccc(Cl)cc2)C1` [Venetoclax], the cytotoxic activity result in data set [4] is reported as “demonstrated cytotoxic activity”.
